Reference: paper PMC11763264, “Antibacterial and Antifungal Activities of Linear and Cyclic Peptides Containing Arginine, Tryptophan, and Diphenylalanine” (Antibiotics, 2025)
Values after ≈ are worked out from the molar mass of the structure shown. Non-standard residues stand in square brackets, D forms with d. Residues, ends and D or L forms follow the SMILES beside them. Dip = N[C@H](C(=O)O)C(c1ccccc1)c1ccccc1

How the values were obtained:
S. aureus (ATCC 29213) = assay: microbe, parasite or virus in culture; type: cell-based, Staphylococcus aureus
Procedure: (§1) The antibacterial activity of all ten synthesized linear and cyclic peptides was evaluated against MRSA (ATCC BAA-1556), S. aureus (ATCC 29213), E. faecium (ATCC 700221), S. pneumoniae (ATCC 51938), E. faecalis (ATCC 29212), B. subtilis (ATCC-6633), K. pneumoniae (ATCC BAA-1705), P. aeruginosa (ATCC 27883), and E. coli (ATCC 25922). Meropenem and daptomycin were used as positive controls for this study. Certain peptides are marked as “NT” (not tested) against specific bacterial strains based on initial screening data. […] The MIC was determined by micro-broth dilution protocol, where the minimal concentrations were determined to be in wells with no visible bacterial growth.
(§2) All bacterial experiments were carried out in a laminar flow hood (Labconco, Kansas City, MO, USA). The bacterial strains were cultured following the guidelines set by the Clinical Laboratory Standards Institute (CLSI). Antibacterial assays were performed using a standard microtiter dilution method as described in previous studies. The minimum inhibitory concentration (MIC) refers to the lowest peptide concentration that inhibits bacterial growth in wells with no visible bacterial growth. MIC was determined by micro-broth dilution. Bacteria were cultured overnight in 6 mL of Luria Broth (LB). A stock solution of the peptide was prepared in water and DMSO, and a test compound solution with a concentration of 256 µg/mL was made in LB. Meropenem, with a solubility of 8 mg/mL, was prepared as a stock solution at 4 mg/500 µL. An aliquot of the overnight bacteria culture was diluted in normal saline (NS, 1 mL) until achieving a 0.5 McFarland turbidity (1.5 × 10^8 bacterial cell CFU/mL). A 0.5 McFarland compared solution (60 µL) was added to Mueller Hinton Broth (MH) 8940 µL to generate a 1/150 dilution. A 200 µL test compound solution was added to the first well of a 96-well plate, and the remaining wells (2–12) were filled with 100 µL of MH media using a multi-channel pipette from a sterile reservoir. A concentration of […] of the tested peptides was prepared from a stock solution of the samples for testing in Muller−Hinton broth MH media. Peptides stock solution was dissolved in 5% DMSO in water, and the final concentration of DMSO in the first well of assay plate was 2.5% DMSO/H2O and diluted across the assay plate.
(§3) A 100 µL sample from well 1 was pipetted into well 2, and the solution was mixed thoroughly by pipetting up and down. Next, 100 µL was transferred from well 2 to well 3, followed by thorough mixing. This 2-fold serial dilution process continued through well 11, with no additions made to well 12. The final 100 µL from well 11 was discarded. After completing the serial dilution, each well (1–12) contained 100 µL of solution. The bacterial culture in MH media was vortexed and transferred to a sterile reservoir, from which 100 µL was added to each well using a 12-channel pipette. (Note: The dilutions were further diluted upon adding the bacterial solution; for example, the concentration in well 1 started at […] after the addition of the bacterial culture.) The plates were incubated overnight at 37 °C for 24 h. All experiments were performed in triplicate and repeated twice, with controls consisting of bacteria in MH media and positive controls of daptomycin or meropenem.

B. subtilis (ATCC-6633) = assay: microbe, parasite or virus in culture; type: cell-based, Bacillus subtilis
Procedure: as §1, §2, §3

C. albicans (ATCC 60193) = assay: microbe, parasite or virus in culture; type: cell-based, Candida albicans; conditions: ATCC 60193, 24 h
Procedure: (§4) The antifungal activity of all ten synthesized linear and cyclic peptides was evaluated against C. albicans (ATCC 60193), C. parapsilosis (ATCC 22019), and A. fumigatus (AF-293). Fluconazole and amphotericin B were used as positive controls for this study. The MIC was determined at concentrations in wells with no visible fungal growth.
(§5) In this study, C. albicans and C. parapsilosis were cultured on Yeast Peptone Dextrose (YPD) agar containing 1% w/v yeast extract, 2% w/v peptone, 2% w/v D-glucose, and 1.5% agar. A single colony from the agar was selected and cultured in Tryptone soy broth supplemented with 0.1% D-glucose, then incubated for 24 h at 37 °C. The cells were washed twice with PBS by centrifugation at 2000 RPM for 5 min. The pellet was resuspended in 5 mL of PBS, diluted in RPMI 1640 with L-glutamine, supplemented with 2% D-glucose, and the pH adjusted using HEPES buffer. The suspension was then incubated for 50 min at 35 °C to achieve a final cell concentration of 10^6 cells/mL.
(§6) Peptide concentrations of 50, 25, 12.5, 6.25, and 3.1 μg/mL were tested in triplicate and repeated twice. Each well of a 96-well plate was inoculated with the prepared inoculum suspension, which was diluted with RPMI media to a final volume of 200 μL per well. The control well received the same inoculum without any compound. The plates were incubated for 24 h at 37 °C. Fungal and microbial growth were visually observed in the control wells, and the minimum inhibitory concentration (MIC) was determined as the lowest concentration at which no growth was detected in the wells. Amphotericin B was used as a standard antifungal drug.

[1] = tested on: S. pneumoniae (ATCC 51938); assay: microbe, parasite or virus in culture; type: cell-based, Streptococcus pneumoniae
Procedure: as §1, §2, §3

E. coli (ATCC 25922) = assay: microbe, parasite or virus in culture; type: cell-based, Escherichia coli
Procedure: as §1, §2, §3

E. faecalis (ATCC 29212) = assay: microbe, parasite or virus in culture; type: cell-based, Enterococcus faecalis
Procedure: as §1, §2, §3

[2] = tested on: C. parapsilosis (ATCC 22019); assay: microbe, parasite or virus in culture; type: cell-based, Candida parapsilosis; conditions: ATCC 22019, 24 h
Procedure: as §4, §5, §6

MRSA (ATCC BAA-1556) = assay: microbe, parasite or virus in culture; type: cell-based, Methicillin-Resistant Staphylococcus aureus
Procedure: as §1, §2, §3

[3] = tested on: K. pneumoniae (ATCC BAA-1705); assay: microbe, parasite or virus in culture; type: cell-based, Klebsiella pneumoniae
Procedure: as §1, §2, §3

[4] = tested on: P. aeruginosa (ATCC 27883); assay: microbe, parasite or virus in culture; type: cell-based, Pseudomonas aeruginosa
Procedure: as §1, §2, §3

E. faecium (ATCC 700221) = assay: microbe, parasite or virus in culture; type: cell-based, Enterococcus faecium
Procedure: as §1, §2, §3

MRSA = conditions: previous work; cited from earlier work
Description: We have previously reported the synthesis of [E4W4], [KR5], [F4R5], [Y4R4], and [R4W4] and tested them against bacterial pathogens.

Molecule: N=C(N)NCCC[C@H](NC(=O)[C@@H](NC(=O)[C@H](CCCNC(=N)N)NC(=O)[C@H](Cc1c[nH]c2ccccc12)NC(=O)[C@H](CCCNC(=N)N)NC(=O)[C@H](Cc1c[nH]c2ccccc12)NC(=O)[C@H](CCCNC(=N)N)NC(=O)[C@H](Cc1c[nH]c2ccccc12)NC(=O)[C@H](CCCNC(=N)N)NC(=O)[C@@H](N)Cc1c[nH]c2ccccc12)C(c1ccccc1)c1ccccc1)C(=O)O [((DipR)(WR)4)] (H-WRWRWRWR[Dip]R-OH)
- MIC (S. aureus (ATCC 29213); ATCC 29213, 24 h): 6.3 µM (≈ 11.1 µg/mL)
- MIC (B. subtilis (ATCC-6633); ATCC-6633, 24 h): 3.1 µM (≈ 5.48 µg/mL)
- MIC (C. albicans (ATCC 60193)): 28.2 µM (≈ 49.8 µg/mL)
- MIC ([1]; ATCC 51938, 24 h): 0.78 µM (≈ 1.38 µg/mL)
- MIC (E. coli (ATCC 25922); ATCC 25922, 24 h): 12.5 µM (≈ 22.1 µg/mL)
- MIC (E. faecalis (ATCC 29212); ATCC 29212, 24 h): 12.5 µM (≈ 22.1 µg/mL)
- MIC [2]: 14.1 µM (≈ 24.9 µg/mL)
- MIC (MRSA (ATCC BAA-1556); ATCC BAA-1556, 24 h): 6.3 µM (≈ 11.1 µg/mL)
- MIC ([3]; ATCC BAA-1705, 24 h): 12.5 µM (≈ 22.1 µg/mL)
- MIC ([4]; ATCC 27883, 24 h): 25 µM (≈ 44.2 µg/mL)
- MIC (E. faecium (ATCC 700221); ATCC 700221, 24 h): 3.1 µM (≈ 5.48 µg/mL)

Molecule: N=C(N)NCCC[C@H](NC(=O)[C@H](CCCNC(=N)N)NC(=O)[C@@H](NC(=O)[C@H](CCCNC(=N)N)NC(=O)[C@@H](NC(=O)[C@H](CCCNC(=N)N)NC(=O)[C@@H](NC(=O)[C@H](CCCNC(=N)N)NC(=O)[C@@H](N)C(c1ccccc1)c1ccccc1)C(c1ccccc1)c1ccccc1)C(c1ccccc1)c1ccccc1)C(c1ccccc1)c1ccccc1)C(=O)O [(DipR)4R] (H-[Dip]R[Dip]R[Dip]R[Dip]RR-OH)
- MIC (S. aureus (ATCC 29213); ATCC 29213, 24 h): 1.6 µM (≈ 2.71 µg/mL)
- MIC (B. subtilis (ATCC-6633); ATCC-6633, 24 h): 1.6 µM (≈ 2.71 µg/mL)
- MIC (C. albicans (ATCC 60193)): 7.4 µM (≈ 12.5 µg/mL)
- MIC ([1]; ATCC 51938, 24 h): 0.39 µM (≈ 0.66 µg/mL)
- MIC (E. coli (ATCC 25922); ATCC 25922, 24 h): 6.3 µM (≈ 10.7 µg/mL)
- MIC (E. faecalis (ATCC 29212); ATCC 29212, 24 h): 3.1 µM (≈ 5.25 µg/mL)
- MIC [2]: 7.4 µM (≈ 12.5 µg/mL)
- MIC (MRSA (ATCC BAA-1556); ATCC BAA-1556, 24 h): 1.6 µM (≈ 2.71 µg/mL)
- MIC ([3]; ATCC BAA-1705, 24 h): 6.3 µM (≈ 10.7 µg/mL)
- MIC ([4]; ATCC 27883, 24 h): 12.5 µM (≈ 21.2 µg/mL)
- MIC (E. faecium (ATCC 700221); ATCC 700221, 24 h): 1.6 µM (≈ 2.71 µg/mL)

Molecule: C[C@@H](O)[C@H]1C(=O)N2C(C(=O)O)=C(S[C@@H]3CN[C@H](C(=O)N(C)C)C3)[C@H](C)[C@H]12 [Meropenem, reference compound]
- MIC (S. aureus (ATCC 29213); Staphylococcus aureus, ATCC29213, micro-broth dilution, Mueller Hinton broth, 37 °C, 24 h, no visible growth, triplicate, repeated twice): 0.5 µM (≈ 0.192 µg/mL)
- MIC (B. subtilis (ATCC-6633); Bacillus subtilis, ATCC6633, micro-broth dilution, Mueller Hinton broth, 37 °C, 24 h, no visible growth, triplicate, repeated twice): 0.6 µM (≈ 0.23 µg/mL)
- MIC ([1]; Streptococcus pneumoniae, ATCC51938, micro-broth dilution, Mueller Hinton broth, 37 °C, 24 h, no visible growth, triplicate, repeated twice): 0.6 µM (≈ 0.23 µg/mL)
- MIC (E. coli (ATCC 25922); Escherichia coli, ATCC25922, micro-broth dilution, Mueller Hinton broth, 37 °C, 24 h, no visible growth, triplicate, repeated twice, NA = Not active): 2.6 µM (≈ 0.997 µg/mL)
- MIC (E. faecalis (ATCC 29212); Enterococcus faecalis, ATCC29212, micro-broth dilution, Mueller Hinton broth, 37 °C, 24 h, no visible growth, triplicate, repeated twice): 5.2 µM (≈ 1.99 µg/mL)
- MIC (MRSA (ATCC BAA-1556); Staphylococcus aureus, micro-broth dilution, Mueller Hinton broth, 37 °C, 24 h, no visible growth, triplicate, repeated twice): 5.2 µM (≈ 1.99 µg/mL)
- MIC ([3]; Klebsiella pneumoniae, ATCCBAA1705, micro-broth dilution, Mueller Hinton broth, 37 °C, 24 h, no visible growth, triplicate, repeated twice, NA = Not active): 42 µM (≈ 16.1 µg/mL)
- MIC ([4]; Pseudomonas aeruginosa, ATCC27883, micro-broth dilution, Mueller Hinton broth, 37 °C, 24 h, no visible growth, triplicate, repeated twice, NA = Not active): 2.6 µM (≈ 0.997 µg/mL)
- MIC (E. faecium (ATCC 700221); Enterococcus faecium, ATCC700221, micro-broth dilution, Mueller Hinton broth, 37 °C, 24 h, no visible growth, triplicate, repeated twice): 83 µM (≈ 31.8 µg/mL)

Molecule: [R4W4]
- MIC against MRSA (MRSA): 2.67 µg/mL
